Results on seven compounds are retold here after publication PMC4638191, “Multicomponent reaction-based synthesis and biological evaluation of tricyclic heterofused quinolines with multi-trypanosomatid activity” (European Journal of Medicinal Chemistry, 2015).

The conditions of data set [1]: for Pe: PAMPA-BBB, PBS:EtOH 70:30, mean ± SD of three independent experiments; for Pe (prediction) of BBB permeation: class from PAMPA-BBB Pe.
Description: Thus, the brain passive permeability of the novel compounds was evaluated in vitro through the widely used PAMPA-BBB method [[50]
Data set [2] deals with bloodstream form T. brucei (strain 221). Briefly: Trypanocidal activity against cultured bloodstream form T. brucei (resazurin). The note with it: for IC50: mean of triplicate ± SEM; for IC90: pH 7.4, read-out: T. brucei IC90.
Description: T. brucei in the logarithmic phase of growth were diluted back to 2.5 × 10^4 mL^−1 and aliquoted into 96-well plates. The compounds were then added at a range of concentrations and the plates incubated at 37 °C. Each drug concentration was tested in triplicate. Resazurin was added after 48 h and the plates incubated for a further 16 h and the plates then read in a Spectramax plate reader. Results were analysed using GraphPad Prism.
Data set [3] concerns L. infantum strain MCAN/ES/92/BCN722 promastigote forms. Briefly: Activity against promastigotes of L. infantum (acid phosphatase). It is filed as cell-based, Leishmania infantum. The conditions noted are these: promastigote form, mean ± SD of duplicate experiments performed at least twice.
The next data set in a line: in vitro. The conditions noted are these: rat, rat skeletal muscle L6 cells.
Data set [4] has as its target Electrophorus electricus AChE (EeAChE) (Electrophorus electricus, UniProt O42275). Description: biochemical. The format is biochemical. The note with it: for IC50: mean ± SEM; for inhibition at 30 µM: the IC50 could not be determined.
Data set [5] concerns rat skeletal myoblast L6 cells. Description: cells. The conditions noted are these: L6, read-out: L6 cells IC50.
Description: (§1) Cytotoxicity against mammalian cells was assessed using microtitre plates following a described procedure [58]. Briefly, rat skeletal muscle L6 cells were seeded at 1 × 10^4 mL^−1 in 200 μL of growth medium containing different compound concentrations. The plates were incubated for 6 days at 37 °C and 20 μL resazurin was then added to each well. After a further 8 h incubation, the fluorescence was determined using a Spectramax plate reader.
In data set [6] the test system is T. cruzi strain MHOM/ES/2203/BCN590 (Tcl) epimastigote forms. Description: Activity against epimastigotes of T. cruzi (cell counting). The conditions noted are these: mean ± SD of duplicate experiments performed at least twice.
The conditions of data set [7]: commercial drugs for PAMPA-BBB validation; ref [2]; cited from earlier work.
Where [8] appears, read: Trypanosoma brucei, pH 7.4, read-out: T. brucei IC50, bloodstream form, pH 7.4.
[9] abbreviates: SILi: selectivity index as the ratio of cytotoxic to anti-L. infantum IC50 values, L6 IC50 / L. infantum IC50.
Setting [10] is: SITb: selectivity index as the ratio of cytotoxic to anti-T. brucei IC50 values, L6 IC50 / T. brucei IC50.
Setting [11] is: SITc: selectivity index as the ratio of cytotoxic to anti-T. cruzi IC50 values, L6 IC50 / T. cruzi IC50.
The mark [12] stands for this setting: Trypanosoma cruzi, read-out: T. cruzi IC50, epimastigote form.
The mark [13] stands for this setting: read-out: T. cruzi IC50, epimastigote form.
Setting [14] is: read-out: T. brucei IC50, bloodstream form, pH 7.4.

Where two headings read alike, the source gives them in different places.

Chain of Electrophorus electricus AChE (EeAChE) (O42275 24-633): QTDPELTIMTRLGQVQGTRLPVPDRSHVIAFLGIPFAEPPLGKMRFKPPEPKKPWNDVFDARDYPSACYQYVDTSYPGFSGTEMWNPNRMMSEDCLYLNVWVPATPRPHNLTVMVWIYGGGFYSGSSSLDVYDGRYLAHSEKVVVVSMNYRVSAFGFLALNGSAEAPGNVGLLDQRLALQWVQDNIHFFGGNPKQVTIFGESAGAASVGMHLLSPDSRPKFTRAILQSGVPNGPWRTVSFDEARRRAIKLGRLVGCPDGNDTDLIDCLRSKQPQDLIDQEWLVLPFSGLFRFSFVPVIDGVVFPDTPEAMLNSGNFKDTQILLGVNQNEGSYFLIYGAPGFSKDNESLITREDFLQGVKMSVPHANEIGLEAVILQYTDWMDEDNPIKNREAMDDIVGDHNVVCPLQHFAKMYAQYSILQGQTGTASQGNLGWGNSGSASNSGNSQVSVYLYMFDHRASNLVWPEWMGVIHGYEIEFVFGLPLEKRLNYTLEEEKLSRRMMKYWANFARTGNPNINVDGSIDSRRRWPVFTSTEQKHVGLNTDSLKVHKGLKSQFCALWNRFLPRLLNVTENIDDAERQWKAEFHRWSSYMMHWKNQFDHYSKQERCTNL
Description for in vitro: as §1

On to `NCc1ccc(-c2nc3ccc(Cl)cc3c3c2CCCCN3)cc1` [Compound 32, 4-{10-Chloro-2,3,4,5-tetrahydro-1H-azepino[3,2-c]quinolin-6-yl}benzylamine], for which the Pe in data set [1] was 11.6 ± 0.2 10^−6 cm s^−1. For the same compound, the “Pe (prediction) of BBB permeation” value in data set [1] is “CNS+ (compounds of high BBB permeation (CNS+): Pe (10^−6 cm s^−1) > 5.25)”. Besides, the half-maximal inhibitory concentration (IC50) is 2.33 ± 0.12 µM in data set [2] (setting [8]); 5 to 8 µM in data set [3] (Leishmania infantum); 4.8 ± 0.7 µM in data set [3]; 1.2 ± 0.13 µM in data set [4]; 7.02 ± 0.27 µM in data set [5]; about 30 µM in data set [6] (setting [12]). Also, the IC50 in data set [6] (setting [13]) is 32.4 ± 0.6 µM. Besides, the IC90 in data set [2] (Trypanosoma brucei) turned out to be 3.35 ± 0.05 µM. Further, the selectivity ratio at 6 days was 1.5 in “in vitro” (setting [9]), 3 in “in vitro” (setting [10]) and 0.2 in the data set “in vitro” (setting [11]).
On to `NCc1ccc(-c2nc3cc(Cl)ccc3c3c2CCCN3)cc1` [Compound 33, 4-{8-Chloro-1,2,3,4-tetrahydrobenzo[h][1,6]naphthyridin-5-yl}benzylamine], for which, in data set [1], the Pe is 4.0 ± 1.0 10^−6 cm s^−1. The 50% inhibitory concentration (IC50) in data set [2] (setting [8]) was 1.25 ± 0.05 µM; in data set [3] (Leishmania infantum) it was 13 ± 0.6 µM; in data set [4], 0.44 ± 0.04 µM; in data set [5], 3.07 ± 0.66 µM; in data set [6] (setting [12]), 76.1 ± 3.2 µM. Moreover, the IC90 in data set [2] (Trypanosoma brucei) stood at 2.12 ± 0.02 µM. Also, the selectivity ratio at 6 days in “in vitro” (setting [9]) came out at 0.2; in “in vitro” (setting [10]) it was 2.5; in “in vitro” (setting [11]), 0.04.
On to `N#Cc1ccc(-c2nc3ccc(Cl)cc3c3c2CCCO3)cc1` [Compound 38, 4-{9-Chloro-3,4-dihydro-2H-pyrano[3,2-c]quinolin-5-yl}benzonitrile], for which the Pe in data set [1] is 29.7 ± 3.8 10^−6 cm s^−1. Besides, in data set [1], the “Pe (prediction) of BBB permeation” value is given as “CNS+ (compounds of high BBB permeation (CNS+): Pe (10^−6 cm s^−1) > 5.25)”. The IC50 in data set [2] (setting [8]) came to 9.61 ± 0.27 µM; in data set [3] (Leishmania infantum), 23.5 ± 2.4 µM; in data set [4], 2.7 ± 0.45 µM; in data set [5], 36.3 ± 8.1 µM; in data set [6] (setting [12]) it was 178 ± 92 µM. In addition, the IC90 in data set [2] (Trypanosoma brucei) worked out at 13.7 ± 1 µM. The selectivity ratio at 6 days was determined as 1.5 in the data set “in vitro” (setting [9]), 3.8 in the data set “in vitro” (setting [10]) and 0.2 in the data set “in vitro” (setting [11]).
Consider `NCc1ccc(-c2nc3ccc(Cl)cc3c3c2CCCO3)cc1` [Compound 39, 4-{9-Chloro-3,4-dihydro-2H-pyrano[3,2-c]quinolin-5-yl}benzylamine], for which the Pe in data set [1] is listed as 15.5 ± 1.8 10^−6 cm s^−1. In data set [1], the “Pe (prediction) of BBB permeation” value was “CNS+ (compounds of high BBB permeation (CNS+): Pe (10^−6 cm s^−1) > 5.25)”. For the same compound, the IC50 in data set [2] (setting [8]) is 1.5 µM; in data set [2] (setting [14]) it was 1.46 ± 0.02 µM; in data set [3] (Leishmania infantum) it was 6.1 ± 0.2 µM; in data set [4] it was over 30 µM; in data set [5], 7 ± 0.19 µM; in data set [6] (setting [12]) it was about 30 µM. Also, the IC50 in data set [6] (setting [13]) worked out at 29.2 ± 3.7 µM. Further, the IC90 in data set [2] (Trypanosoma brucei) came to 1.77 ± 0.02 µM. The selectivity ratio at 6 days turned out to be 1.1 in “in vitro” (setting [9]), 4.8 in “in vitro” (setting [10]) and 0.2 in “in vitro” (setting [11]). The compound also showed an inhibition at 30 µM in data set [4] of 45%.
On to `Clc1ccc2nc(-c3cccs3)c(CCCN3CCCC3)cc2c1` [Compound 49, N-{3-[6-Chloro-2-(2-thienyl)quinolin-3-yl]propyl}pyrrolidine], for which, in data set [1], the Pe is reported as 12.9 ± 0.1 10^−6 cm s^−1. Further, the “Pe (prediction) of BBB permeation” value in data set [1] is “CNS+ (compounds of high BBB permeation (CNS+): Pe (10^−6 cm s^−1) > 5.25)”. Further, the IC50 in data set [2] (setting [8]) was about 5 µM; in data set [2] (setting [14]) it was 3.56 ± 0.17 µM; in data set [3] (Leishmania infantum), about 15 µM; in data set [3] it was 13.1 ± 5.8 µM; in data set [4] it was about 30 µM; in data set [5], 9.44 ± 0.14 µM. Further, the IC50 in data set [6] (setting [12]) came out at 35.2 ± 12.6 µM. Also, the IC90 in data set [2] (Trypanosoma brucei) was 4.93 ± 0.17 µM. Further, the values for the selectivity ratio at 6 days in the data set “in vitro” (setting [9]), in the data set “in vitro” (setting [10]) and in the data set “in vitro” (setting [11]) were 0.7, 2.7 and 0.3, respectively. The inhibition at 30 µM in data set [4] came to 54%.
As to `CN1C(C(=O)Nc2ccccn2)=C(O)c2ccccc2S1(=O)=O` [Piroxicam], the “Pe, literature value” in data set [7] is 2.5 10–6 cm s–1.
As for `CN(C)CCCN1c2ccccc2Sc2ccccc21` [Promazine], the “Pe, literature value” in data set [7] was 8.8 10–6 cm s–1.
